Source: patent publication US9303016B2, “Derivatives of aza adamantane and uses thereof” (CONNEXIOS LIFE SCIENCES PVT. LTD., priority 2011, dated 2016)

Biological target: T1, human full length HSD11β1 (Homo sapiens, UniProt P28845)
T1 construct: transient expression of human full length HSD11β1 expression vector; host or cells: CHO cells, transient transfection
Assay: In Vitro HSD11β1 Inhibition Assay
Format: cell-based
Settings: CHO cells transiently expressing human HSD11β1; 200 nM cortisone+500 uM NADPH overnight; cortisone to cortisol by LC/MS-MS; read-out: 11βHSD1 (IC50)
Procedure: In Vitro HSD11β1 Inhibition Assay:
CHO cells were maintained in Dulbecco's modified Eagle's medium/nutrient mixture F-12 containing 5% fetal bovine serum (v/v) and 2 mM glutamine. Cells were cultured at 37° C. with 5% CO2. For transient expression of human full length HSD11β1 expression vector (OriGene Technologies), cells were seeded at a density of 2×10^5 cells/well in a 6-well plate. Transfection was done using Turbofectin8 reagent (OriGene Technologies), according to the protocol provided with the reagent. After 24 hours post-transfection, cells were trypsinized and pooled together before they were re-seeding to 96-well plate at a density of 40000 cells/well. 24 hours after re-seeding, cells were incubated with 200 nM cortisone+500 uM NADPH (or along with small molecule inhibitors) overnight. The enzymatic activity or inhibition of enzyme activity was measured by estimating the conversion of cortisone to cortisol by LC/MS-MS method. The IC50 in nM was calculated from a 8 point log scale of concentration versus inhibition.

T1 sequence (P28845 whole entry): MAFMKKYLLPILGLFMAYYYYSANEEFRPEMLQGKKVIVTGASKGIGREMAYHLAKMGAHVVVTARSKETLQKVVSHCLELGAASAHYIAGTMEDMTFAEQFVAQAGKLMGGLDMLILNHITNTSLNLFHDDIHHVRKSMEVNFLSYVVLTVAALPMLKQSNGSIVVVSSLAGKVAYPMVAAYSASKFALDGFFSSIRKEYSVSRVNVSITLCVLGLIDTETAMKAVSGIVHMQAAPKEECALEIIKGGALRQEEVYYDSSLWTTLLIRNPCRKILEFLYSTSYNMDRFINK

SMILES | IC50 [µM]
O=C(CC(c1ccc(F)cc1)c1c[nH]c2ccccc12)N1C2CC3CC1CC(O)(C3)C2 (single isomer, unassigned) [Compound 81, 3-(4-fluorophenyl)-1-(5-hydroxy-2-azatricyclo[3.3.1.1^3,7]dec-2-yl)-3-(1H-indol-3-yl)propan-1-one] | > 0.25
CC(CC(=O)N1C2CC3CC1CC(O)(C3)C2)c1c[nH]c2cc(F)ccc12 (single isomer, unassigned) [Compound 97, 3-(6-fluoro-1H-indol-3-yl)-1-(5-hydroxy-2-azatricyclo[3.3.1.1^3,7]dec-2-yl)butan-1-one] | > 0.25
CC(CC(=O)N1C2CC3CC1CC(O)(C3)C2)c1c[nH]c2cc(F)ccc12 (single isomer, unassigned) [Compound 98, 3-(6-fluoro-1H-indol-3-yl)-1-(5-hydroxy-2-azatricyclo[3.3.1.1^3,7]dec-2-yl)butan-1-one] | < 0.1
CC(CC(=O)N1C2CC3CC1CC(O)(C3)C2)c1c[nH]c2cccc(C3CC3)c12 (single isomer, unassigned) [Compound 102, 3-(4-cyclopropyl-1H-indol-3-yl)-1-(5-hydroxy-2-azatricyclo[3.3.1.1^3,7]dec-2-yl)butan-1-one] | < 0.1
CC(CC(=O)N1C2CC3CC1CC(O)(C3)C2)c1c[nH]c2cccc(C3CC3)c12 (single isomer, unassigned) [Compound 103, 3-(4-cyclopropyl-1H-indol-3-yl)-1-(5-hydroxy-2-azatricyclo[3.3.1.1^3,7]dec-2-yl)butan-1-one] | > 0.25
CC(CC(=O)N1C2CC3CC1CC(O)(C3)C2)c1nc2ccccc2s1 (single isomer, unassigned) [Compound 115, 3-(1,3-benzothiazol-2-yl)-1-(5-hydroxy-2-azatricyclo[3.3.1.1^3,7]dec-2-yl)butan-1-one] | 0.2 to 0.25
CC(CC(=O)N1C2CC3CC1CC(C#N)(C3)C2)c1nc2c(Cl)cccc2s1 (single isomer, unassigned) [Compound 124, 2-[3-(4-chloro-1,3-benzothiazol-2-yl)butanoyl]-2-azatricyclo[3.3.1.1^3,7]decane-5-carbonitrile] | > 0.25
CC(CC(=O)N1C2CC3CC1CC(C#N)(C3)C2)c1nc2c(Cl)cccc2s1 (single isomer, unassigned) [Compound 125, 2-[3-(4-chloro-1,3-benzothiazol-2-yl)butanoyl]-2-azatricyclo[3.3.1.1^3,7]decane-5-carbonitrile] | > 0.25
COc1cc2c(C(C)CC(=O)N3C4CC5CC3CC(O)(C5)C4)c[nH]c2cc1Cl (single isomer, unassigned) [Compound 129, 3-(6-chloro-5-methoxy-1H-indol-3-yl)-1-(5-hydroxy-2-azatricyclo[3.3.1.1^3,7]dec-2-yl)butan-1-one] | > 0.25
COc1cc2c(C(C)CC(=O)N3C4CC5CC3CC(O)(C5)C4)c[nH]c2cc1Cl (single isomer, unassigned) [Compound 130, 3-(6-chloro-5-methoxy-1H-indol-3-yl)-1-(5-hydroxy-2-azatricyclo[3.3.1.1^3,7]dec-2-yl)butan-1-one] | < 0.1
O=C(CC(c1ccccc1)c1c[nH]c2cc(Cl)ccc12)N1C2CC3CC1CC(C(=O)O)(C3)C2 (single isomer, unassigned) [Compound 141, 2-[3-(6-chloro-1H-indol-3-yl)-3-phenylpropanoyl]-2-azatricyclo[3.3.1.1^3,7]decane-5-carboxylic acid] | 0.1 to 0.15
Cc1c(F)ccc2[nH]cc(C(C)CC(=O)N3C4CC5CC3CC(O)(C5)C4)c12 (single isomer, unassigned) [Compound 147, 3-(5-fluoro-4-methyl-1H-indol-3-yl)-1-(5-hydroxy-2-azatricyclo[3.3.1.1^3,7]dec-2-yl)butan-1-one] | 0.1 to 0.15
Cc1c(F)ccc2[nH]cc(C(C)CC(=O)N3C4CC5CC3CC(O)(C5)C4)c12 (single isomer, unassigned) [Compound 148, 3-(5-fluoro-4-methyl-1H-indol-3-yl)-1-(5-hydroxy-2-azatricyclo[3.3.1.1^3,7]dec-2-yl)butan-1-one] | < 0.1
CC(CC(=O)N1C2CC3CC1CC(CC(=O)O)(C3)C2)c1c[nH]c2cccc(C3CC3)c12 (single isomer, unassigned) [Compound 155, {2-[3-(4-cyclopropyl-1H-indol-3-yl)butanoyl]-2-azatricyclo[3.3.1.1^3,7]dec-5-yl}acetic acid] | 0.1 to 0.15
CC(CC(=O)N1C2CC3CC1CC(CC(=O)O)(C3)C2)c1c[nH]c2cccc(C3CC3)c12 (single isomer, unassigned) [Compound 156, {2-[3-(4-cyclopropyl-1H-indol-3-yl)butanoyl]-2-azatricyclo[3.3.1.1^3,7]dec-5-yl}acetic acid] | > 0.25
CC(CC(=O)N1C2CC3CC1CC(O)(C3)C2)c1c[nH]c2ccc(F)c(C3CC3)c12 (single isomer, unassigned) [Compound 158, 3-(4-cyclopropyl-5-fluoro-1H-indol-3-yl)-1-(5-hydroxy-2-azatricyclo[3.3.1.1^3,7]dec-2-yl)butan-1-one] | > 0.25
Cc1ccc2[nH]cc(C(C)CC(=O)N3C4CC5CC3CC(O)(C5)C4)c2c1C (single isomer, unassigned) [Compound 169, 3-(4,5-dimethyl-1H-indol-3-yl)-1-(5-hydroxy-2-azatricyclo[3.3.1.1^3,7]dec-2-yl)butan-1-one] | < 0.1
CC(CC(=O)N1C2CC3CC1CC(O)(C3)C2)c1c[nH]c2ccc(Cl)c(Cl)c12 (single isomer, unassigned) [Compound 172, 3-(4,5-dichloro-1H-indol-3-yl)-1-(5-hydroxy-2-azatricyclo[3.3.1.1^3,7]dec-2-yl)butan-1-one] | > 0.25
Cc1ccc2[nH]cc(C(C)CC(=O)N3C4CC5CC3CC(O)(C5)C4)c2c1Cl (single isomer, unassigned) [Compound 174, 3-(4-chloro-5-methyl-1H-indol-3-yl)-1-(5-hydroxy-2-azatricyclo[3.3.1.1^3,7]dec-2-yl)butan-1-one] | > 0.25

The next lines start with the values.

IC50 [µM] | SMILES
< 0.1 | Cc1ccc2[nH]cc(C(C)CC(=O)N3C4CC5CC3CC(O)(C5)C4)c2c1Cl (single isomer, unassigned) [Compound 175, 3-(4-chloro-5-methyl-1H-indol-3-yl)-1-(5-hydroxy-2-azatricyclo[3.3.1.1^3,7]dec-2-yl)butan-1-one]
> 0.25 | CC(C)Oc1cccc2[nH]cc(C(C)CC(=O)N3C4CC5CC3CC(O)(C5)C4)c12 (single isomer, unassigned) [Compound 179, 1-(5-hydroxy-2-azatricyclo[3.3.1.1^3,7]dec-2-yl)-3-[4-(propan-2-yloxy)-1H-indol-3-yl]butan-1-one]
< 0.1 | CC(C)Oc1cccc2[nH]cc(C(C)CC(=O)N3C4CC5CC3CC(F)(C5)C4)c12 (single isomer, unassigned) [Compound 184, 1-(5-fluoro-2-azatricyclo[3.3.1.1^3,7]dec-2-yl)-3-[4-(propan-2-yloxy)-1H-indol-3-yl]butan-1-one]
> 0.25 | CC(C)Oc1cccc2[nH]cc(C(C)CC(=O)N3C4CC5CC3CC(F)(C5)C4)c12 (single isomer, unassigned) [Compound 185, 1-(5-fluoro-2-azatricyclo[3.3.1.1^3,7]dec-2-yl)-3-[4-(propan-2-yloxy)-1H-indol-3-yl]butan-1-one]
> 0.25 | CC(CC(=O)N1C2CC3CC1CC(O)(C3)C2)c1c[nH]c2cccc(-c3cccs3)c12 (single isomer, unassigned) [Compound 189, 1-(5-hydroxy-2-azatricyclo[3.3.1.1^3,7]dec-2-yl)-3-[4-(thiophen-2-yl)-1H-indol-3-yl]butan-1-one]
< 0.1 | CC(CC(=O)N1C2CC3CC1CC(O)(C3)C2)c1nc2ccc(Cl)cc2s1 (single isomer, unassigned) [Compound 194, 3-(6-chloro-1,3-benzothiazol-2-yl)-1-(5-hydroxy-2-azatricyclo[3.3.1.1^3,7]dec-2-yl)butan-1-one]
> 0.25 | CC(CC(=O)N1C2CC3CC1CC(O)(C3)C2)c1nc2ccc(Cl)cc2s1 (single isomer, unassigned) [Compound 195, 3-(6-chloro-1,3-benzothiazol-2-yl)-1-(5-hydroxy-2-azatricyclo[3.3.1.1^3,7]dec-2-yl)butan-1-one]
> 0.25 | CC(CC(=O)N1C2CC3CC1CC(O)(C3)C2)c1c[nH]c2ncc(Cl)c(C3CC3)c12 (single isomer, unassigned) [Compound 200, 3-(5-chloro-4-cyclopropyl-1H-pyrrolo[2,3-b]pyridin-3-yl)-1-(5-hydroxy-2-azatricyclo[3.3.1.1^3,7]dec-2-yl)butan-1-one]
> 0.25 | CC(CC(=O)N1C2CC3CC1CC(O)(C3)C2)c1c[nH]c2ccccc12 (single isomer, unassigned) [Example 21, 1-(5-hydroxy-2-azatricyclo[3.3.1.1^3,7]dec-2-yl)-3-(1H-indol-3-yl)butan-1-one]
> 0.25 | CC(CC(=O)N1C2CC3CC1CC(O)(C3)C2)c1c[nH]c2ccccc12 (single isomer, unassigned) [Example 22, 1-(5-hydroxy-2-azatricyclo[3.3.1.1^3,7]dec-2-yl)-3-(1H-indol-3-yl)butan-1-one]
> 0.25 | CC(CC(=O)N1C2CC3CC1CC(O)(C3)C2)c1c[nH]c2cccc(F)c12 (single isomer, unassigned) [Example 27, 3-(4-fluoro-1H-indol-3-yl)-1-(5-hydroxy-2-azatricyclo[3.3.1.1^3,7]dec-2-yl)butan-1-one]
